Test results published in patent US10662210B2, “Compositions and methods comprising osmium for the treatment of cancers” (Massachusetts Institute of Technology, priority 2014, dated 2020).

Assays:
[1] = system: MRC-5 (lung normal); assay: Cytotoxicity MTT assay; type: cell-based, human; conditions: 72 h
Procedure: (§1) The anti-proliferative properties of 1-4 against a panel of human cancer cell lines were assessed by the MTT [3-(4,5-dimethylthiazol-2-yl)-2,5-diphenyltetrazolium bromide] assay. Cisplatin was included as a control. The IC50 values, concentrations required to induce 50% viability, were derived from dose-response curves and are summarized in Table 1.
(§2) A549 lung adenocarcinoma, HeLa cervical cancer, and MRC5 normal human fetal lung fibroblast cell lines were maintained in Dulbecco's Modified Eagle's Medium (DMEM-low glucose) supplemented with 10% fetal bovine serum and 1% penicillin/streptomycin. The cisplatin-sensitive A2780 ovarian cancer and the cisplatin-resistant A2780/CP70 ovarian cancer cell lines were cultured in RPMI (glutamine free) media supplemented with 10% fetal bovine serum and 1% penicillin/streptomycin. All cells were grown at 310 K in a humidified atmosphere containing 5% CO2.
(§3) The colorimetric MTT assay was used to determine the toxicity of the osmium complexes and cisplatin. Cells (2×10^3) were seeded in each well of a 96-well plate. After incubating the cells overnight, various concentrations of test compound (0.3-100 μM) were added and incubated for 72 h (total volume 200 μL). The test compounds were prepared as 10 mM solutions in DMSO and diluted using media. The final concentration of DMSO in each well was 0.5% and this amount was present in the untreated control as well. Cisplatin was prepared as a 5 mM solution in PBS and diluted further using media. After 72 h, the medium was removed, 200 μL of a 0.4 mg/mL solution of MTT in DMEM or RPMI was added, and the plate was incubated for an additional 1-2 h. The DMEM/MTT or RPMI/MTT mixture was aspirated and 200 μL of DMSO was added to dissolve the resulting purple formazan crystals. The absorbance of the solution wells was read at 550 nm. Absorbance values were normalized to DMSO-containing control wells and plotted as concentration of test compound versus % cell viability. IC50 values were interpolated from the resulting dose dependent curves. The reported IC50 values are the average from at least three independent experiments, each of which consisted of six replicates per concentration level.

[2] = system: A2780 (ovarian); assay: Cytotoxicity MTT assay; type: cell-based, human; conditions: MTT, 72 h
Procedure: as §1, §2, §3

[3] = system: HeLa (cervical); assay: Cytotoxicity MTT assay; type: cell-based, human; conditions: 72 h
Procedure: as §1, §2, §3

[4] = system: A549 (lung); assay: Cytotoxicity MTT assay; type: cell-based, human; conditions: 72 h
Procedure: as §1, §2, §3

[5] = system: A2780/CP70 (ovarian); assay: Cytotoxicity MTT assay; type: cell-based, human; conditions: 72 h, cisplatin-resistant
Procedure: as §1, §2, §3

[6] = Water-octanol partition coefficient (log P), shake-flask method with GF-AAS; type: physicochemical; conditions: room temperature, 50 μM
Procedure: Those of ordinary skill in the art would be knowledgeable of methods of determining the water-octanol partition coefficient of compounds. For example, the log P of a compound may be obtained using the shake-flask method and graphite furnace atomic absorption spectroscopy (GF-AAS). Briefly, in the shake-flask method, octanol is pre-saturated with water by overnight incubation with shaking of a biphasic mixture of the two at room temperature. A portion of 0.5 mL water containing 50 μM of the given compound is incubated with the pre-saturated octanol (0.5 mL) in a 1.5 mL tube. The tube is shaken at room temperature for 3 hours. The two phases are separated by centrifugation and the osmium content (concentration) in each phase is determined by GFAAS. The log P is then calculated using the formula below: log P=log 10[(concentration of osmium in the octanol layer)/(concentration of osmium in the water layer)].
The log P values were obtained using the shake-flask method and graphite furnace atomic absorption spectroscopy (GF-AAS). Octanol used in this experiment was pre-saturated with water by overnight incubation with shaking of a biphasic mixture of the two at room temperature. A portion of 0.5 mL water containing 50 μM of the given compound was incubated with the pre-saturated octanol (0.5 mL) in a 1.5 mL tube. The tube was shaken at room temperature for 3 h. The two phases were separated by centrifugation and the osmium content (concentration) in each phase was determined by GFAAS. All the experiments were carried out in triplicate. The log P was then calculated using the formula below: Log P=log 10[(conc. of osmium in the octanol layer)/(conc. of osmium in the water layer)].

[7] = system: HMLER^tax CSC-enriched; assay: Cytotoxicity against CSC-enriched breast cancer cells; type: cell-based; conditions: for HMLER^tax selectivity: CSC-enriched vs CSC-depleted
Description: (§4) Cancer relapse is strongly linked to the existence of CSCs. […] Conventional chemotherapy and radiotherapy are often ineffective against CSCs. Although current therapies effectively reduce tumor mass by destroying the bulk of cancer cells, they are unable to remove CSCs, which persist and generate new tumors, often of a far more aggressive nature. Therefore, in order to improve clinical outcomes, treatments must have the ability to kill the entirety of cancer cells, including CSCs. The osmium compound, described in Formula (I), wherein X^1, X^2, and X^3 were chloride ligands and the bidentate ligand was a 1,10-phenanthroline ligand, was able to kill breast cancer cells (HMLER) enriched with CSCs, 2.3-fold better than CSC-depleted breast cancer cells. […] The selectivity of the osmium compound can be seen in Table 2 as well as FIGS. 17A-B and 18.
as §3

[8] = system: HMLER CSC-depleted; assay: Cytotoxicity against CSC-depleted breast cancer cells; type: cell-based
Description: as §4, §3

[9] = system: A2780 cells; assay: Cytotoxicity MTT assay with pathway and cell death inhibitors; type: cell-based, human; conditions: salubrinal 10 μM
Procedure: This finding led to the investigation of the possibility that 4 may induce endoplasmic reticulum (ER) stress. Co-administration of 4 and salubrinal (10 μM), a known ER stress inhibitor, reduced the cytotoxicity of 4 in A2780 cells. […] To further validate the ER as the main target for 4, the expression of proteins related to the unfolded protein response (UPR) was monitored. […] ER membrane expansion is widely associated with ER stress. With this fact in mind the ER size of A2780 cells upon incubation with 4 were examined using fluorescence microscopy. Relative to untreated controls (FIG. 3B), cells exposed to 4 (10 μM) for 4 h had 25.1% larger ER coverage (FIG. 3C). The ER size relative to the whole cell of the untreated controls was about 30% and the ER size relative to the whole cell of the treated samples was about 55%.
Having established the intracellular targets of 2 and 4, the role of p53, a cell cycle and apoptosis regulator, in the cellular responses evoked was investigated. […] Therefore, p53 played a fundamental role in coordinating the cellular response to 2-induced DNA damage. […] (FIG. 13). […] To relate p53 to potency, cytotoxicity studies were conducted in the presence of p53 inhibitors pifithrin-α and pifithrin-μ. (both 10 μM). […] The IC50 values of compound 2 in the absence and presence of p53 inhibitor pifithrin-μ after 72 hours incubation was about 2 μM and about 30 μM, respectively.
as §3
For specific pathway and cell death inhibitor assays, inhibitors of p53 (pifithrin-α, 10 μM and pifithrin-μ, 10 μM), ER stress (salubrinal, 10 μM), necrosis (IM-54, 10 μM), and autophagocytosis (chloroquine, 10 μM) were added to cells and incubated for 0-1 h prior to treatment with the test compounds.

Molecule	IC50 [1]	IC50 [2]	IC50 [3]	IC50 [4]	IC50 [5]	log P (water-octanol coefficient) [6]	IC50 [7]	HMLER^tax selectivity [7]	IC50 [8]	effect of salubrinal on toxicity [9]
CC1=C[N]2c3c4c(ccc3=C1C)=C(C)C(C)=C[N]4[Os]2(#[N])([Cl])([Cl])[Cl] [Complex 3, OsN(3,4,7,8-tetramethyl-1,10-phenanthroline)Cl3]	17.2 ± 2.16 µM	7.97 ± 1.41 µM	6.34 ± 0.52 µM	14.9 ± 1.63 µM	3.91 ± 0.26 µM	1.54	–	–	–	–
N.N.O=C([O-])C1(C(=O)[O-])CCC1.[Pt+2] [carboplatin]	–	–	–	–	–	–	18.2 µM	0.98	17.8 µM	–
N.N.[Cl][Pt][Cl] [cisplatin, reference compound]	11.1 ± 1.33 µM	1.41 ± 0.37 µM	2.83 ± 0.06 µM	3.59 ± 0.92 µM	10.3 ± 1.5 µM	–	2.06 µM	0.95	1.95 µM	limited effect
O=C1[O][Pt]2([NH][C@@H]3CCCC[C@H]3[NH]2)[O]C1=O [oxaliplatin]	–	–	–	–	–	–	26.9 µM	0.55	15 µM	–
CC[C@@H](C(=O)[C@@H](C)[C@@H](O)[C@H](C)[C@@H]1O[C@@H]([C@@H](CC)C(=O)O)CC[C@@H]1C)[C@H]1O[C@]2(C=C[C@@H](O)[C@]3(CC[C@@](C)([C@H]4CC[C@](O)(CC)[C@H](C)O4)O3)O2)[C@H](C)C[C@@H]1C [salinomycin]	–	–	–	–	–	–	0.058 µM	8.45	0.49 µM	–
CC(=O)[O][Pt]([NH2])([Cl])([Cl])([NH]C1CCCCC1)[O]C(C)=O [satraplatin]	–	–	–	–	–	–	2.87 µM	0.43	1.22 µM	–
OsN(2,2′-bipyridine)Cl3 [Complex 1]	21.6 ± 4.85 µM	3.8 ± 0.21 µM	9.24 ± 0.58 µM	6.11 ± 0.87 µM	3.94 ± 1.75 µM	0.71	–	–	–	–
abamectin	–	–	–	–	–	–	0.64 µM	2.26	1.45 µM	–
